Source: article PMC8201324, “Pyrazoles and Pyrazolines as Anti-Inflammatory Agents” (Molecules, 2021)

Experiments:
[1] = ABTS+ decolorization assay for antioxidant activity; format: biochemical
Text: Pyrazolines 2d and 2e which are the most lipophilic compounds, showing antioxidant activity using the ABTS radical cation (ABTS^•+) generated through potassium persulfate by oxidation with no participation of an intermediary radical. This reduction is completed by adding electron-donating antioxidants. It seems that lipophilicity influences the activity, since both present high lipophilicity values.
(§1) A stock solution (1% DMSO in the appropriate buffer with the tested compound diluted under sonication) was prepared for the in vitro assays from which several dilutions were made with the appropriate buffer. The in vitro experiments were performed at least in triplicate, and the standard deviation of absorbance was less than 10% of the mean.
The ABTS radical cation (ABTS^+•) was generated by mixing ABTS stock solution in water (7 mM) with potassium persulfate (2.45 mM) and left in the dark at room temperature for 12–16 h before use. The results are recorded immediately after the mixing solutions at 734 nm. The results were compared to the appropriate standard inhibitor Trolox (Table 4).

[2] = Reducing activity of the stable radical DPPH; format: biochemical
Experimental: The novel derivatives were studied for their interaction with the stable 2,2-diphenyl-1-picrylhydrazyl free radical (DPPH) at concentrations 50 µM, 100 µM, 200 µM and after 20 and 60 min (Table 3). This assay is based on the reduction of the DPPH by transferring an electron from the antioxidant. […] However, it seems that the interaction is dependent on the concentration and on the reaction time. From this point of view, it can be concluded that the acetyl pyrazolyl derivatives 2c and 2f seem to present the highest scavenging activities. An increase in concentration favors the activity. […] As for compounds 2a, 2b, 2c and 2f, activity seems to be time dependent at 200 µM. […] The presence of a chlorine group in 2e pyrazoline leads to an activity increase (compared to 2d) in concentration 200 µM. The acetyl derivative 2f presents better activity than 2b at 200 µM.
as §1
A stock solution (10 mM) of the novel derivatives in DMSO was prepared and an equal volume of it was added to a solution of DPPH in absolute ethanol to reach final concentrations 50, 100 µM and 200 µM. The absorbance was recorded at 517 nm, after 20 and 60 min at room temperature (Table 3).

[3] = Experimental determination of lipophilicity as RM values (RP-TLC); format: physicochemical; parameters: key: RM = log[(1/Rf) − 1] from RP-TLC Rf values; conditions: methanol/water 70/30 v/v, 24 °C, average of at least five measurements
Text: Lipophilicity is the key physicochemical parameter of a bioactive molecule, linking solubility, ligand-target binding interactions and membrane permeability with absorption, distribution, bioavailability, metabolism and elimination (ADME) and toxicological effects, crucial for its biological activity. The reverse phase thin layer chromatography (RPTLC) method was used for the experimental determination of the lipophilic character of the synthesized compounds as RM values (Table 2). Lipophilicity was also theoretically calculated as clog P values, using the CLOGP Program of Biobyte Corp. and as LPSP-lipophilicity values through Spartan v.5.1.3. (Wavefunction Inc., Irvine, CA, USA). According to the calculated clog P values, as well as LPSP, the most lipophilic compounds were the compounds 2c, 2d, 2e and 2g. This observation was supported by the RM values (with the exception of 2g).
Lipophilicity as RM values was determined through reversed phase TLC (RP-TLC) on silica gel plates impregnated with 5% (v/v) liquid paraffin in light petroleum ether. Methanol/water mixture (70/30, v/v) was used a mobile phase. Closed chromatography tanks saturated with the mobile phase at 24 °C were used for the development of the plates while the spots were detected under UV light. For the determination of RM values, five individual measurements of Rf values were recorded, and the RM values were derived from the equation RM = log [(1/Rf) − 1] [42, 43] (Table 2).

[4] = Inhibition of linoleic acid lipid peroxidation (AAPH); format: biochemical
Experimental: For the lipid peroxidation study, 2,2′-azobis(2-amidinopropane) hydrochloride (AAPH) was used for the generation of peroxyl radicals. The generation of the conjugated diene hydroperoxide derived from the oxidation of sodium linoleate in an aqueous solution was recorded at 234 nm. The compounds presented high anti-lipid peroxidation activity (78–100%) (Table 4). Pyrazolines 2a and 2b present lower anti-lipid peroxidation activity (89% and 78% respectively).
as §1
AAPH was used as free radical initiator of alkylperoxyl radicals. The ability of the compounds to prevent the oxidation of linoleic acid sodium salt from alkylperoxyl radicals was recorded at 234 nm. Trolox was used as reference (93%) (Table 4).

Row | Compound | ABTS^+ % 100 µM (decolorization activity) [1] | RA% 50 µM 20 min [2] [%] | RA% 50 µM 60 min [2] [%] | RA% 100 µM 20 min [2] [%] | RA% 100 µM 60 min [2] [%] | RA% 200 µM 20 min [2] [%] | RA% 200 µM 60 min [2] [%] | RM (±SD) [3] | AAPH% 100 µM (anti-lipid peroxidation) [4] [%] | melting point [°C]
1 | 1-(5-(4-((4-bromobenzyl)oxy)phenyl)-3-(thiophen-2-yl)-1H-pyrazol-1-yl)ethan-1-one [Compound 2c] | no | 17.1 | 22.4 | 41.9 | 44.0 | 49.4 | 59.2 | 0.68 ± 0.05 | 100 | –
2 | 5-(4-((4-bromobenzyl)oxy)phenyl)-3-(4-chlorophenyl)-4,5-dihydro-1H-pyrazole [Compound 2e] | 30% | 9.5 | 13.0 | 14.8 | 17.8 | 25.6 | 30.1 | 0.87 ± 0.07 | 98 | –
3 | c1ccc(C2=NNC(c3cccc4ccccc34)C2)cc1 (stereo not drawn) [Compound 2a, 5-(naphthalen-1-yl)-3-phenyl-4,5-dihydro-1H-pyrazole] | no | 15.0 | 20.0 | 22.9 | 32.0 | 37.2 | 49.3 | 0.22 ± 0.2 | 89 | 45 to 47
4 | Clc1ccc(C2=NNC(c3ccc4[nH]ccc4c3)C2)cc1 (stereo not drawn) [Compound 2b, 5-(3-(4-chlorophenyl)-4,5-dihydro-1H-pyrazol-5-yl)-1H-indole] | no | 19.3 | 25.0 | 26.1 | 33.6 | 34.9 | 44.4 | 0.23 ± 0.03 | 78 | 96 to 98
5 | Brc1ccc(COc2ccc(C3CC(c4ccccc4)=NN3)cc2)cc1 (stereo not drawn) [Compound 2d, 5-(4-((4-bromobenzyl)oxy)phenyl)-3-phenyl-4,5-dihydro-1H-pyrazole] | 15% | 6.3 | 9.5 | 19.4 | 37.4 | 9.4 | 14.9 | 0.72 ± 0.06 | 96 | 98 to 100
6 | CC(=O)n1nc(-c2ccccc2)cc1-c1ccc2[nH]ccc2c1 [Compound 2f, 1-(5-(1H-indol-5-yl)-3-phenyl-1H-pyrazol-1-yl)ethan-1-one] | no | 21.0 | 24.7 | 34.7 | 38.8 | 50.1 | 59.5 | −0.07 ± 0.01 | 95 | 65 to 66
7 | CC(=O)n1nc(-c2ccc(Cl)cc2)cc1-c1cccc2ccccc12 [Compound 2g, 1-(3-(4-chlorophenyl)-5-(naphthalen-1-yl)-1H-pyrazol-1-yl)ethan-1-one] | no | 9.0 | 12.7 | 11.2 | 13.6 | 22.5 | 27.7 | −0.59 ± 0.05 | 100 | 53 to 55
8 | CC(=O)n1nc(-c2ccccc2)cc1-c1cccc(Oc2ccccc2)c1 [Compound 2h, 1-(5-(3-phenoxyphenyl)-3-phenyl-1H-pyrazol-1-yl)ethan-1-one] | no | 6.7 | 9.5 | 7.8 | 9.6 | 17.2 | 20.9 | 0.41 ± 0.02 | 97 | 44 to 46
